Results published in patent publication US11426362B2, “Oral cannabinoid formulations” (GW Research Limited, priority 2017, dated 2022).

Assays:
[1] = cited from earlier work
[2] = Antioxidant screening in the formulation; format: physicochemical; conditions: alpha-tocopherol at 0.5% concentration in surfactant phase; ascorbic acid in aqueous phase
Excerpt: Alpha tocopherol and ascorbic acid were screened for their effectiveness for use within the formulation. Ascorbic acid was used in the aqueous phase whereas the alpha tocopherol was used in the surfactant phase in terms of order of addition.

[3] = oral and parenteral administration in animals; cited from earlier work

Row | SMILES | appearance of solutions containing the antioxidant [2] | acute toxicity [3] | further results
1 | OC[C@H]1O[C@H](O[C@]2(CCl)O[C@H](CCl)[C@@H](O)[C@@H]2O)[C@H](O)[C@@H](O)[C@H]1Cl [Sucralose] | – | – | ADI limit ([1]; pediatric population): 5 mg/kg/day
2 | Cc1c(C)c2c(c(C)c1O)CC[C@@](C)(CCC[C@H](C)CCC[C@H](C)CCCC(C)C)O2 [alpha-tocopherol] | hazy | – | –
3 | O=C1O[C@H]([C@@H](O)CO)C(O)=C1O [ascorbic acid] | clear colourless solutions | – | –
4 | COC(=O)c1ccc(O)cc1 [methylparaben, methyl parahydroxybenzoate] | – | practically non-toxic | –
5 | CCCOC(=O)c1ccc(O)cc1 [propyl paraben, propyl parahydroxybenzoate] | – | relatively non-toxic | permitted daily exposure (PDE) ([1]; adults and pediatric patients): 2 mg/kg/day
